Laboratory results taken from ChEMBL document CHEMBL3244075, “Synthesis and hypoglycemic activity of some substituted 2-arylthiazolo[3,2-a]pyridinium salts” (J Med Chem, 1978).
Active and inactive are the calls of the source. No cut-off for these calls is given here.

Assays:
Rattus norvegicus [1] = test: Hypoglycemic activity in 48 hrs-fasted rat assessed as change in blood glucose level at dose equivalent to 102 mg of free base/kg, po measured at 3 hrs relative to control; type: functional
Rattus norvegicus [2] = test: Hypoglycemic activity in 48 hrs-fasted rat assessed as change in blood glucose level at dose equivalent to 102 mg of free base/kg, po measured at 1 hr relative to control; type: functional
Rattus norvegicus [3] = test: Hypoglycemic activity in 48 hrs-fasted rat assessed as change in blood glucose level at dose equivalent to 102 mg of free base/kg, po measured at 2 hrs relative to control; type: functional
Rattus norvegicus [4] = test: Hypoglycemic activity in 48 hrs-fasted rat assessed as change in blood glucose level at dose equivalent to 102 mg of free base/kg, po measured at 4 hrs relative to control; type: functional
Rattus norvegicus [5] = test: Hypoglycemic activity in 48 hrs-fasted rat assessed as change in blood glucose level at dose equivalent to 102 mg of free base/kg, po measured at 5 hrs relative to control; type: functional
Rattus norvegicus [6] = test: Toxicity in 48 hrs-fasted rat assessed as elevation in hepatic triglyceride level at dose equivalent to 102 mg of free base/kg, po relative to control; type: organism-based; details: in vivo
Rattus norvegicus [7] = test: Hypoglycemic activity in 48 hrs-fasted rat assessed as change in blood glucose level at dose equivalent to 68 mg of free base/kg, po measured at 3 hrs relative to control; type: functional
Rattus norvegicus [8] = test: Hypoglycemic activity in 48 hrs-fasted rat assessed as change in blood glucose level at dose equivalent to 68 mg of free base/kg, po measured at 1 hr relative to control; type: functional
Rattus norvegicus [9] = test: Hypoglycemic activity in 48 hrs-fasted rat assessed as change in blood glucose level at dose equivalent to 68 mg of free base/kg, po measured at 5 hrs relative to control; type: functional
Rattus norvegicus [10] = test: Hypoglycemic activity in 48 hrs-fasted rat assessed as change in blood glucose level at dose equivalent to 68 mg of free base/kg, po measured at 4 hrs relative to control; type: functional
Rattus norvegicus [11] = test: Hypoglycemic activity in 48 hrs-fasted rat assessed as change in blood glucose level at dose equivalent to 68 mg of free base/kg, po measured at 2 hrs relative to control; type: functional
Rattus norvegicus [12] = test: Toxicity in 48 hrs-fasted rat assessed as elevation in hepatic triglyceride level at dose equivalent to 34 mg of free base/kg, po relative to control; type: organism-based; details: in vivo
Rattus norvegicus [13] = test: Toxicity in streptozotocin-induced diabetic rat model assessed as elevation in hepatic triglyceride level up to dose equivalent to 136 mg of free base/kg, po relative to control; type: organism-based; details: in vivo
Rattus norvegicus [14] = organism: Rattus norvegicus; test: Hypoglycemic activity in normal fed rat; type: functional, organism-based
Rattus norvegicus [15] = test: Hypoglycemic activity in 48 hrs-fasted rat assessed as change in blood glucose level at dose equivalent to 34 mg of free base/kg, po measured at 5 hrs relative to control; type: functional, organism-based
Kidney = test: Inhibition of glucose production from lactate in rat kidney cortex at 10^-4 M; type: functional, tissue-based
Rattus norvegicus [16] = organism: Rattus norvegicus; test: Hypoglycemic activity in streptozotocin-induced diabetic rat model; type: functional, organism-based

Row | SMILES | Activity (Rattus norvegicus [1]) [%] | Activity (Rattus norvegicus [2]) [%] | Activity (Rattus norvegicus [3]) [%] | Activity (Rattus norvegicus [4]) [%] | Activity (Rattus norvegicus [5]) [%] | other results
1 | Cc1ccc[n+]2cc(-c3ccccc3)sc12.O.[O-][Cl+3]([O-])([O-])[O-] | -51 | -17 | -42 | -59 | -50 | Activity (Rattus norvegicus [6]): 200%
2 | CSc1ccc(-c2c[n+]3ccccc3s2)cc1.O.[O-][Cl+3]([O-])([O-])[O-] | -14 | -9 | -11 | -6 | -2 | –
3 | Brc1ccc(-c2c[n+]3ccccc3s2)cc1.O.O=S(=O)([O-])O | -1 | 9 | -4 | -5 | 1 | –
4 | CS(=O)(=O)c1ccc(-c2c[n+]3ccccc3s2)cc1.[O-][Cl+3]([O-])([O-])[O-] | -6 | 3 | -8 | -6 | -2 | –
5 | O.[Cl-].c1csc(-c2c[n+]3ccccc3s2)c1 | -13 | 1 | -2 | -13 | 0 | –
6 | O.O=S(=O)([O-])O.c1ccc(-c2c[n+]3ccccc3s2)cc1 | – | – | – | – | – | Activity (Rattus norvegicus [7]): -21%; Activity (Rattus norvegicus [8]): -6%; Activity (Rattus norvegicus [9]): -30%; Activity (Rattus norvegicus [10]): -39%; Activity (Rattus norvegicus [11]): -16%
7 | O.[O-][Cl+3]([O-])([O-])[O-].c1ccc(-c2csc3cccc[n+]23)cc1 | -28 | -12 | -16 | -12 | -19 | –
8 | Nc1ccc(-c2c[n+]3ccccc3s2)cc1.O.[O-][Cl+3]([O-])([O-])[O-] | -20 | -8 | 1 | -7 | -14 | –
9 | [O-][Cl+3]([O-])([O-])[O-].c1ccc(-c2c[n+]3ccccc3s2)cc1 | – | – | – | – | – | Activity (Rattus norvegicus [12]): Toxic; Activity (Rattus norvegicus [7]): -17%; Activity (Rattus norvegicus [8]): -4%; Activity (Rattus norvegicus [9]): -28%; Activity (Rattus norvegicus [10]): -33%; Activity (Rattus norvegicus [13]): Non-toxic; Activity (Rattus norvegicus [11]): -8%; Activity (Rattus norvegicus [6]): 200%
10 | O.[Cl-].c1ccc(-c2c[n+]3ccccc3s2)cc1 | – | – | – | – | – | Activity (Rattus norvegicus [7]): -31%; Activity (Rattus norvegicus [8]): -4%; Activity (Rattus norvegicus [9]): -39%; Activity (Rattus norvegicus [10]): -39%; Activity (Rattus norvegicus [11]): -13%
11 | c1ccc(-c2c[n+]3ccccc3s2)cc1 | – | – | – | – | – | Activity (Rattus norvegicus [14]): Active; Activity (Rattus norvegicus [15]): Active; Activity (Kidney): Active; Activity (Rattus norvegicus [16]): Active
12 | CN(C)/C=N/c1cccc(-c2c[n+]3ccccc3s2)c1.O.[O-][Cl+3]([O-])([O-])[O-] | -1 | 1 | 0 | -1 | 22 | –
13 | [O-][Cl+3]([O-])([O-])[O-].c1cc[n+]2ccsc2c1 | -15 | -14 | -20 | -13 | -12 | –
14 | O=C([O-])C(F)(F)F.c1ccc(-c2c[n+]3ccccc3s2)cc1 | – | -7 | -9 | – | – | Activity (Rattus norvegicus [7]): -15%; Activity (Rattus norvegicus [9]): -24%; Activity (Rattus norvegicus [10]): -18%
15 | Cc1cc[n+]2cc(-c3ccccc3)sc2c1.[O-][Cl+3]([O-])([O-])[O-] | -28 | 14 | -4 | -29 | -22 | –
16 | CC(=O)Nc1cccc(-c2c[n+]3ccccc3s2)c1.[O-][Cl+3]([O-])([O-])[O-] | 3 | 12 | 8 | 9 | 4 | –
17 | Cc1ccc2sc(-c3ccccc3)c[n+]2c1.[O-][Cl+3]([O-])([O-])[O-] | -26 | 19 | -30 | -27 | -16 | –
18 | O=S(=O)([O-])c1ccc(-c2ccc(-c3c[n+]4ccccc4s3)cc2)cc1 | 13 | 3 | 3 | 2 | 4 | –
19 | O.[Cl-].c1ccc(-c2ccc(-c3c[n+]4ccccc4s3)cc2)cc1 | -12 | -7 | -12 | 13 | 3 | –
20 | Nc1cccc(-c2c[n+]3ccccc3s2)c1.[O-][Cl+3]([O-])([O-])[O-] | -8 | -10 | -16 | -7 | -8 | –
21 | O=S(=O)([O-])c1ccc(-c2c[n+]3ccccc3s2)s1 | -5 | -6 | 5 | -6 | 6 | –
22 | O.O=S(=O)([O-])O.O=[N+]([O-])c1cccc(-c2c[n+]3ccccc3s2)c1 | -6 | -10 | -7 | -6 | 0 | –
23 | CC(C)Oc1cccc(-c2c[n+]3ccccc3s2)c1.[O-][Cl+3]([O-])([O-])[O-] | -4 | 4 | -1 | 9 | -10 | –
